Where two headings read alike, the source gives them in different places.
Tests used:
[1] = tested on: Staphylococcus aureus; assay: Broth microdilution susceptibility assay, Staphylococcus aureus; format: cell-based
[2] = tested on: Cryptococcus neoformans; assay: Broth microdilution susceptibility assay, Cryptococcus neoformans; format: cell-based
[3] = tested on: murine P388 lymphocytic leukemia cell line; assay: Cancer cell growth inhibition, murine P388 lymphocytic leukemia cell line; format: cell-based; conditions: Mus musculus
How it was run: (§1)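 Growth inhibition in murine P388 leukemia and human cancer cell line panels (Arizona State University minipanel and NCI 60-cell screen).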

[4] = tested on: Enterobacter cloacae; assay: Broth microdilution susceptibility assay, Enterobacter cloacae; format: cell-based
[5] = tested on: Escherichia coli; assay: Broth microdilution susceptibility assay, Escherichia coli; format: cell-based
[6] = tested on: Neisseria gonorrhoeae; assay: Broth microdilution susceptibility assay, Neisseria gonorrhoeae; format: cell-based
[7] = tested on: Stenotrophomonas maltophilia; assay: Broth microdilution susceptibility assay, Stenotrophomonas maltophilia; format: cell-based
[8] = tested on: breast MCF-7; assay: Cancer cell growth inhibition, breast MCF-7; format: cell-based, human; conditions: Homo sapiens, MCF7, breast MCF-7
Protocol: (§2) Biology The cancer cell growth inhibitory properties were examined using the murine P388 lymphocytic leukemia cell line and a selection of human cancer cell lines.
(§3) All of the synthetic products were evaluated against a minipanel of human cancer cell lines, the murine P388 lymphocytic leukemia cell line and a selection of microorganisms.

[9] = tested on: colon KM 20L2; assay: Cancer cell growth inhibition, colon KM 20L2; format: cell-based, human; conditions: Homo sapiens, colon KM 20L2
How it was run: as §1

[10] = tested on: pancreas BXPC-3; assay: Cancer cell growth inhibition, pancreas BXPC-3; format: cell-based, human; conditions: Homo sapiens, pancreas BXPC-3
Protocol: as §2, §3

[11] = tested on: Enterococcus faecalis; assay: Broth microdilution susceptibility assay, Enterococcus faecalis; format: cell-based
[12] = tested on: Streptococcus pneumoniae; assay: Broth microdilution susceptibility assay, Streptococcus pneumoniae; format: cell-based
[13] = tested on: CNS SF-268; assay: Cancer cell growth inhibition, CNS SF-268; format: cell-based, human; conditions: Homo sapiens, CNS SF-268
Protocol: as §2, §3

[14] = tested on: Micrococcus luteus; assay: Broth microdilution susceptibility assay, Micrococcus luteus; format: cell-based
[15] = tested on: lung NCI-H460; assay: Cancer cell growth inhibition, lung NCI-H460; format: cell-based, human; conditions: Homo sapiens, lung NCI-H460
How it was run: as §1

[16] = tested on: Vero cells; conditions: cited from earlier work
[17] = tested on: herpes simplex virus type 1 (HSV-1); conditions: cited from earlier work
[18] = molecular target: T1, PKC alpha (Homo sapiens, UniProt P17252); assay: Inhibition of PKC catalytic activity (peptide substrate phosphorylation); format: biochemical; conditions: for inhibition at 30 µM: read-out: percent inhibition of PKC catalytic activity
Text: We further evaluated the ability of the derivatives to inhibit PKC catalytic activity. […] Inhibition by 10c was 19.5±7.6% and inhibition by 4, 5, and 9a, b, c was 6% or less (all values are mean±SEM, three experiments). […] In both cases, the inhibition curves were steeper than predicted for a competitive inhibitor, consistent with a complicated mechanism of action (Hill coefficients for 10a and 10b of 1.5±0.1 and 2.0±0.5, respectively).

[19] = tested on: Candida albicans; assay: Broth microdilution susceptibility assay, Candida albicans; format: cell-based
[20] = tested on: prostrate DU-145; assay: Cancer cell growth inhibition, prostate DU-145; format: cell-based, human; conditions: Homo sapiens
Protocol: as §2, §3

[21] = tested on: genes whose products are involved in DNA synthesis; assay: cDNA microarray assay with THP-1 cells; format: cell-based, human; conditions: THP-1 cells treated for 23 hours with 0.25 μg/ml
[22] = tested on: THP-1 human monocytic leukemia cells; assay: Flow cytometry cell cycle analysis of THP-1 cells; format: cell-based; conditions: THP-1 cells pretreated for 24 hours with 0.25 μg/ml
[23] = molecular target: T1, PKC alpha; assay: Inhibition of [3H]phorbol 12,13-dibutyrate binding to PKC alpha; conditions: read-out: inhibition of [3H]phorbol 12,13-dibutyrate binding to PKC alpha
How it was run: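 Compounds tested at a single 30 μM concentration for displacement of [3H]phorbol 12,13-dibutyrate binding to PKC alpha, reported as percent inhibition. Triplicate measurements in one or three independent experiments depending on compound.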

[24] = tested on: Mycobacterium tuberculosis H37Rv; assay: Microplate Alamar Blue Assay, Mycobacterium tuberculosis; format: cell-based; conditions: 6.25 μg/ml
[25] = Table 4, read-out: Range of minimum inhibitory concentration
[26] = Table 5, leukemia P388, read-out: Cancer Cell Line Results ED50
[27] = Table 3, read-out: Cancer cell growth inhibitory ED50
[28] = Table 5, read-out: Cancer Cell Line Results ED50
[29] = DU-145, Table 5, prostate DRU-145, read-out: Cancer Cell Line Results ED50

COc1cc2c3c(ccnc3c1OC)N(C)C=C2 [Compound 4, 4-Methylaaptamine]
MIC [1, 25]: > 64 µg/mL
MIC [2, 25]: > 64 µg/mL
IC50 ([3]; P388, Table 3, leukemia P-388, read-out: Cancer cell growth inhibitory ED50): > 10 µg/mL
IC50 [3, 26]: > 10 µg/mL
MIC [4, 25]: > 64 µg/mL
MIC [5, 25]: > 64 µg/mL
MIC [6, 25]: > 64 µg/mL
MIC ([7]; Table 4, Stenotrophomonas maltophil, read-out: Range of minimum inhibitory concentration): > 64 µg/mL
IC50 [8, 27]: > 10 µg/mL
IC50 [8, 28]: > 10 µg/mL
IC50 [9, 27]: > 10 µg/mL
IC50 [9, 28]: > 10 µg/mL
IC50 [10, 27]: > 10 µg/mL
IC50 [10, 28]: > 10 µg/mL
MIC [11, 25]: > 64 µg/mL
MIC [12, 25]: > 64 µg/mL
IC50 [13, 27]: > 10 µg/mL
IC50 [13, 28]: > 10 µg/mL
MIC [14, 25]: > 64 µg/mL
IC50 [15, 27]: > 10 µg/mL
IC50 [15, 28]: > 10 µg/mL
toxicity to Vero cells [16]: low toxicity
antiviral activity against HSV-1 [17]: potent antiviral activity
inhibition at 30 µM ([18]; 30 μM compound, 1 μM phorbol 12-myristate 13-acetate, 100 μg/ml phospholipid, mean±SEM, three experiments): ≤ 6%
MIC [19, 25]: > 64 µg/mL
IC50 [20, 29]: > 10 µg/mL
IC50 ([20]; Table 3, prostrate DU-145, read-out: Cancer cell growth inhibitory ED50): > 10 µg/mL

COc1cc2c3c(cc[n+](Cc4ccccc4)c3c1OC)N(Cc1ccccc1)C=C2.[Cl-] [Compound 10a, 1,4-Bis-(benzyl)-8,9-dimethoxy-4H-benzo[de][1,6]naphthyridin-1-ium chloride]
Range of minimum inhibitory concentration ([1]; Table 6): * (no inhibition at 64 μg/mL)
Range of minimum inhibitory concentration ([2]; Table 6): * (no inhibition at 64 μg/mL)
IC50 [3, 26]: 0.234 µg/mL
down-regulation of several genes involved in DNA synthesis [21]: 5- to 7 fold
Range of minimum inhibitory concentration ([4]; Table 6): * (no inhibition at 64 μg/mL)
Range of minimum inhibitory concentration ([5]; Table 6): 8 µg/mL
Range of minimum inhibitory concentration ([6]; Table 6): 0.25 µg/mL
Range of minimum inhibitory concentration ([7]; Table 6): * (no inhibition at 64 μg/mL)
IC50 [8, 28]: 0.27 µg/mL
IC50 [9, 28]: 0.055 µg/mL
IC50 [10, 28]: 0.061 µg/mL
Range of minimum inhibitory concentration ([11]; Table 6): 32 µg/mL
Range of minimum inhibitory concentration ([12]; Table 6): 32 µg/mL
IC50 [13, 28]: 0.064 µg/mL
Range of minimum inhibitory concentration ([14]; Table 6): 0.5 to 2 µg/mL
IC50 [15, 28]: 0.26 µg/mL
cell cycle effect (propidium iodide flow cytometry) [22]: accumulation of cells in the GI phase
Hill coefficient of PKC inhibition curve [18]: 1.5±0.1
IC50 [18]: 20.8 ± 2.5 µM
inhibition at 30 µM [18]: 71.1 ± 4.5%
Range of minimum inhibitory concentration ([19]; Table 6): * (no inhibition at 64 μg/mL)
inhibition at 30 µM [23]: 11.8%
inhibition at 6.25 µg/mL [24]: 98%
melting point: 175 °C (dec.)
IC50 [20, 29]: 0.036 µg/mL

— patent US20050187240A1, “Aaptamine and isoaaptamine and structural modifications thereof” (The Arizona Board of Regents, Acting for and on behalf of …, priority 2004, published 2005)
